Experimental findings from publication PMC10847579, “Recording ten-fold larger IKr conductances with automated patch clamping using equimolar Cs^+ solutions” (Frontiers in Physiology, 2024) are described below.

Data set [1] deals with T1, hERG channel (Homo sapiens, UniProt Q12809).
T1 construct: host or cells: CHO cre/lox hERG
Nature of the data set: Automated patch clamp (Nanion Patchliner) of hERG current in CHO-hERG cells with K+ solutions. Type of data set: cell-based. A general note: In patch-clamp work, channel activity is measured electrically.
Method: (§1) A cell passage was performed twice a week and kept under 20 passages for optimal cell quality. […] Thereafter, the cells were resuspended in 1.7 mL external K^+ solution.
(§2) After sample preparation, experiments on CHO cells were performed at 22°C on the Nanion® Patchliner system (Nanion Technologies, Munich, Germany) with a EPC-10 Quadro Amplifier (HEKA, Reutlingen, Germany) controlled by Patchmaster 2.90.5. Recordings were performed using membrane capacitance and series resistance compensation (70%). The chip (NPC-16 medium resistance, Nanion Technologies) was filled with either the K^+ or Cs^+ internal and external solution with a resistance between 2 and 4 MOhm. Thereafter, the cells were added to the chip. After the capture of a cell, the seal enhancer solution was added, obtaining a Rseal of at least 200 MOhm. Next, the chip was flushed with an external solution. During the experiment, four cells were measured simultaneously in separate chambers of the chip.
(§3) For all experiments, the drugs were incubated for 60 s before measuring and an activation pulse of +20 mV and −80 mV both for 500 m was given to open the channel and achieve the steady-state ion channel–drug interaction.
For Cs^+-based experiments, the cells were depolarized from a holding potential of −80 mV in 10-mV increments between −70 mV and +40 mV for 3 s. Thereafter, the cell was clamped back to −80 mV for 2 s, followed by a hyperpolarization step to −100 mV for 50 ms before returning to −80 mV. In K^+-based experiments, the cells were clamped at a holding potential of −80 mV before a hyperpolarizing step to −120 mV for 10 ms and returned to −80 mV for 50 ms before cells were depolarized from −60 mV to 60 mV in 10-mV increments for 1 s. Thereafter, the cells were clamped back to −50 mV for 500 ms and finally returned to −80 mV. The interval between sweeps was 10 s for both protocols.
For the stock solutions, the drugs were dissolved in ddH2O and for the working solution diluted in either the K^+ or Cs^+ external solution. The different concentrations per compound were sequentially tested on the same cell.
For all measured currents, the current densities (pA/pF) were determined by normalizing for the membrane capacitance. The current densities were converted to conductance densities (pS/pF) using reversal potentials calculated using the Nernst equation for the solution and temperature used.
Dose–response curves were made with the tail current values at 40 mV, which were the largest current densities.
All averages are expressed as mean ± SEM for the (maximal) conductance values and IC50 values. To determine the amount of block, a two-way ANOVA with Dunnett’s test was performed with the maximal conductance values. […]

For data set [2], the target named is T1, hERG channel. Nature of the data set: Automated patch clamp (Nanion Patchliner) of hERG current in CHO-hERG cells with equimolar Cs+ solutions. Type of data set: cell-based.
Method: as §1, §2, §3
For Cs^+-based experiments, the cells were depolarized from a holding potential of −80 mV in 10-mV increments between −70 mV and +40 mV for 3 s. Thereafter, the cell was clamped back to −80 mV for 2 s, followed by a hyperpolarization step to −100 mV for 50 ms before returning to −80 mV. In K^+-based experiments, the cells were clamped at a holding potential of −80 mV before a hyperpolarizing step to −120 mV for 10 ms and returned to −80 mV for 50 ms before cells were depolarized from −60 mV to 60 mV in 10-mV increments for 1 s. […]
For all measured currents, the current densities (pA/pF) were determined by normalizing for the membrane capacitance. The current densities were converted to conductance densities (pS/pF) using reversal potentials calculated using the Nernst equation for the solution and temperature used. […]
All averages are expressed as mean ± SEM for the (maximal) conductance values and IC50 values. […]

T1 sequence (Q12809 whole entry): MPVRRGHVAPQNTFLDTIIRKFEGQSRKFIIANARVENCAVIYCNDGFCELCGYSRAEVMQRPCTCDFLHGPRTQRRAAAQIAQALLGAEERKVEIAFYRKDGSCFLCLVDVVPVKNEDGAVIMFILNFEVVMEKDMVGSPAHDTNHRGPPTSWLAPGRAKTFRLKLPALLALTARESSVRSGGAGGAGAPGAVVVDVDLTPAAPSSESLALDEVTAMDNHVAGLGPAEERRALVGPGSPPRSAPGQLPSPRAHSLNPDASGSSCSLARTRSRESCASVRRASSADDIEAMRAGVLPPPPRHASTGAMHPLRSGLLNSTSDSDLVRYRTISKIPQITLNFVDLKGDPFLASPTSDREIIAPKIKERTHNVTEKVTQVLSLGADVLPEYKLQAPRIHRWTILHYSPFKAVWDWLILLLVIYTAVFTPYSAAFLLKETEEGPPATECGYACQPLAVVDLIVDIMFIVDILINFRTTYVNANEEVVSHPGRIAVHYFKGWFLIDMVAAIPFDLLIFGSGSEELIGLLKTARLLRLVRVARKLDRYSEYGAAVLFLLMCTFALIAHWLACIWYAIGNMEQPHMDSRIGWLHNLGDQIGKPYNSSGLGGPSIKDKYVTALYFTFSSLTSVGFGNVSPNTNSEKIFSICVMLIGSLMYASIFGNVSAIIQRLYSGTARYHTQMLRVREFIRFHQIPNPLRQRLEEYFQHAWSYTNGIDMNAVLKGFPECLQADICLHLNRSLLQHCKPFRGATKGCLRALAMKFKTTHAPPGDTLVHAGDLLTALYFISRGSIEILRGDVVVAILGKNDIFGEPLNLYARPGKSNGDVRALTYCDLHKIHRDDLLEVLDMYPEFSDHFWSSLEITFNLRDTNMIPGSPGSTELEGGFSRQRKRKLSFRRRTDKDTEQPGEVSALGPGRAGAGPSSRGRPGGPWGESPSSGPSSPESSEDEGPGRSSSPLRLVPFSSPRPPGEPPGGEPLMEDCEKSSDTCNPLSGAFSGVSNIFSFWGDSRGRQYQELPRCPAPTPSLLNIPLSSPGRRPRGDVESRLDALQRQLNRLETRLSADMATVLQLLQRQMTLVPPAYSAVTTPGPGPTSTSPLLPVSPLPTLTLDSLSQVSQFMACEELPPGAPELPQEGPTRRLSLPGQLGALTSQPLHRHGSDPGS

Take `CNCCCN1c2ccccc2CCc2ccccc21` [Desipramine]: the “effect on K+ step conductance” value on hERG channel [1] (K+ solutions, 1 µM) was “almost completely inhibited”. Further, at hERG channel [1] (K+ solutions, 100 and 1,000 µM), the “effect on K+ tail conductance” value was “completely blocked”. For the same molecule, the Hill coef. on hERG channel [1] (K+ solutions, tail current at +40 mV) is −1.4; on hERG channel [2] (tail current at +40 mV), −1.4. Also, the “strength of hERG current inhibition” value at hERG channel [1] (comparison of the drugs, Figure 1 (K+ and Cs+ solutions)) was “modest inhibition”. Also, the “effect on Cs+ step conductance” value at hERG channel [2] (100 µM (highest)) is listed as “slightly decreased”. For the same molecule, the “effect on Cs+ tail conductance” value on hERG channel [2] (100 µM (highest)) is “strong decrease but not a complete block”.
